Data as given in patent US7855216B2, “Aza-indolyl compounds and methods of use” (Genentech, Inc., priority 2006, dated 2010).
pEC50: −log10 of the molar value.

Legend:
[1] = test system: HCT116 and A375 cell lines; experiment: Cell proliferation assay (CellTiter-Glo); format: cell-based; settings: Homo sapiens; in either cell line (HCT116 or A375); 72 h exposure
Procedure: Compounds are tested in a cell proliferation assay using the following cell lines:
(§1) Both cell lines are maintained in DMEM/F12 (1:1) media (Gibco) supplemented with 10% FCS at 37° C. in a 5% CO2 humidified incubator.
Cells are seeded in 96-well plates at 2,000 cells/well and after 24 hours they are exposed to different concentrations of compounds in 0.83% DMSO. Cells are grown for a further 72 h, and an equal volume of CellTiter-Glo reagent (Promega) is added to each well. This lyses the cells and generates a luminescent signal proportional to the amount of ATP released (and therefore proportional to the number of cells in the well) that can be detected using a multi-well luminometer.
The EC50 is defined as the concentration at which a given compound achieves 50% inhibition of control. IC50 values are calculated using the XLfit software package (version 2.0.5).

[2] = test system: phospho-ERK in HCT116 and A375 cell lines; experiment: Phospho-ERK cell-based assay; settings: Homo sapiens; in either cell line (HCT116 or A375); 2 h or 24 h exposure
Procedure: Compounds are tested in a cell-based phospho-ERK ELISA using the following cell lines:
as §1
Cells are seeded in 96-well plates at 2,000 cells/well and after 24 h they are exposed to different concentrations of compounds in 0.83% DMSO. Cells are grown for a further 2 h or 24 h, fixed with formaldehyde (2% final) and permeabilised with methanol. Following blocking with TBST-3% BSA, fixed cells are incubated with primary antibody (anti-phospho ERK from rabbit) over-night at 4° C. Cells are incubated with Propidium Iodide (DNA fluorescent dye) and detection of cellular p-ERK is performed using an anti-rabbit secondary antibody conjugated to the fluorescent Alexa Fluor 488 dye (Molecular probes). The fluorescence is analysed using the Acumen Explorer (TTP Labtech), a laser-scanning microplate cytometer, and the Alexa Fluor 488 signal is normalised to the PI signal (proportional to cell number).
The EC50 is defined as the concentration at which a given compound achieves a signal half way between the baseline and the maximum response. EC50 values are calculated using the XLfit software package (version 2.0.5).

| pEC50 [1] | pEC50 [2] | SMILES |
| --- | --- | --- |
| > 5.00 | > 5.00 | CCn1c(C(=O)NOCCO)c(Nc2ccc(I)cc2F)c2cnccc21 [Example 11] |
| > 5.00 | > 5.00 | O=C(NOCCO)c1c(Nc2ccc(I)cc2F)c2cnccc2n1Cc1ccccc1F [Example 27] |
| > 5.00 | > 5.00 | CSc1ccc(Nc2c(C(=O)NOC[C@H](C)O)n(C)c3ccncc23)c(F)c1 [Example 58] |
| – | > 5.00 | CN(C)S(=O)(=O)c1ccc(Cn2c(C(=O)NOCCO)c(Nc3ccc(I)cc3F)c3cnccc32)cc1 [Example 50] |
| > 5.00 | > 5.00 | COCCn1c(C(=O)NOCCO)c(Nc2ccc(I)cc2F)c2cnccc21 [Example 7] |
| > 5.00 | > 5.00 | CN(C)S(=O)(=O)c1cccc(Cn2c(C(=O)NOCCO)c(Nc3ccc(I)cc3F)c3cnccc32)c1 [Example 47] |
| > 5.00 | > 5.00 | O=C(NOCCO)c1c(Nc2ccc(I)cc2F)c2cnccc2n1Cc1ccccc1 [Example 24] |
| > 5.00 | > 5.00 | CSc1ccc(Nc2c(C(=O)NOC(C)(C)CO)[nH]c3ccncc23)c(F)c1 [Example 59, 3-(2-Fluoro-4-methylsulfanyl-phenylamino)-1H-pyrrolo[3,2-c]pyridine-2-carboxylic acid (2-hydroxy-1,1-dimethyl-ethoxy)-amide semiformate] |
| > 5.00 | > 5.00 | O=C(NOCC1CC1)c1[nH]c2ccncc2c1Nc1ccc(I)cc1F [Example 38] |
| > 5.00 | > 5.00 | O=C(NOCCO)c1c(Nc2ccc(I)cc2F)c2cnccc2n1Cc1ccc(F)cc1 [Example 33] |
| > 5.00 | > 5.00 | Cn1c(C(=O)NOCCO)c(Nc2ccc(I)cc2F)c2cnccc21 [Example 6, 3-(2-Fluoro-4-iodo-phenylamino)-1-methyl-1H-pyrrolo[3,2-c]pyridine-2-carboxylic acid (2-hydroxy-ethoxy)-amide] |
| > 5.00 | > 5.00 | O=C(NOCCO)c1c(Nc2ccc(I)cc2F)c2cnccc2n1CCc1ccccc1 [Example 31] |
| > 5.00 | > 5.00 | CSc1ccc(Nc2c(C(=O)NOCCO)n(C)c3ccncc23)c(F)c1 [Example 56] |
| > 5.00 | > 5.00 | CC(C)(C)ONC(=O)c1[nH]c2ccncc2c1Nc1ccc(I)cc1F [Example 40] |
| > 5.00 | > 5.00 | CSc1ccc(Nc2c(C(=O)NOC(C)(C)CO)n(C)c3ccncc23)c(F)c1 [Example 57] |
| – | > 5.00 | COc1ccc(Cn2c(C(N)=O)c(Nc3ccc(I)cc3F)c3cnccc32)cc1 [Example 17] |
| > 5.00 | > 5.00 | O=C(NOCCO)c1[nH]c2c(F)cncc2c1Nc1ccc(I)cc1F [Example 49] |
| > 5.00 | > 5.00 | C#CCn1c(C(=O)NOCCO)c(Nc2ccc(I)cc2F)c2cnccc21 [Example 64, 3-(2-Fluoro-4-iodo-phenylamino)-1-prop-2-ynyl-1H-pyrrolo[3,2-c]pyridine-2-carboxylic acid (2-hydroxy-ethoxy)-amide] |
| – | > 5.00 | CN(C)C(=O)c1ccc(Cn2c(C(=O)NOCCO)c(Nc3ccc(I)cc3F)c3cnccc32)cc1 [Example 30] |
| > 5.00 | > 5.00 | Cn1c(C(=O)NOCC2CC2)c(Nc2ccc(I)cc2F)c2cnccc21 [Example 15] |
| > 5.00 | > 5.00 | O=C(NOCCO)c1c(Nc2ccc(I)cc2F)c2cnccc2n1CC1CC1 [Example 23] |
| > 5.00 | > 5.00 | Cn1c(C(=O)NOCCO)c(Nc2ccc(I)cc2F)c2cncc(Cl)c21 [Example 39] |
| – | > 5.00 | CS(=O)(=O)c1ccc(Cn2c(C(=O)NOCCO)c(Nc3ccc(I)cc3F)c3cnccc32)cc1 [Example 29] |

| pEC50 [1] | pEC50 [2] | SMILES |
| --- | --- | --- |
| – | > 5.00 | CSc1ccc(Nc2c(C(=O)NOCCO)n(C3CC3)c3ccncc23)c(F)c1 [Example 62, 1-Cyclopropyl-3-(2-fluoro-4-methylsulfanyl-phenylamino)-1H-pyrrolo[3,2-c]pyridine-2-carboxylic acid (2-hydroxy-ethoxy)-amide] |
| > 5.00 | > 5.00 | Cn1c(C(=O)NOC[C@H](O)CO)c(Nc2ccc(I)cc2F)c2cnccc21 [Example 5, 3-(2-Fluoro-4-iodo-phenylamino)-1-methyl-1H-pyrrolo[3,2-c]pyridine-2-carboxylic acid ((R)-2,3-dihydroxy-propoxy)-amide] |
| > 5.00 | > 5.00 | O=C(NOCC(O)CO)c1c(Nc2ccc(I)cc2F)c2cnccc2n1C1CC1 (stereo not shown) [Example 63, 1-Cyclopropyl-3-(2-fluoro-4-iodo-phenylamino)-1H-pyrrolo[3,2-c]pyridine-2-carboxylic acid (2,3-dihydroxy-propoxy)-amide] |
| > 5.00 | > 5.00 | Cn1c(C(N)=O)c(Nc2ccc(I)cc2F)c2cnccc21 [Example 16] |
| > 5.00 | > 5.00 | O=C(NOCCO)c1c(Nc2ccc(I)cc2F)c2cnccc2n1Cc1ccc(C(F)(F)F)cc1 [Example 43] |
| – | > 5.00 | O=C(NOCCO)c1[nH]c2c(Cl)cncc2c1Nc1ccc(I)cc1F [Example 34] |
| > 5.00 | > 5.00 | N#Cc1ccc(Cn2c(C(=O)NOCCO)c(Nc3ccc(I)cc3F)c3cnccc32)cc1 [Example 44] |
| > 5.00 | > 5.00 | O=C(NOCCO)c1c(Nc2ccc(I)cc2F)c2cnccc2n1C1CC1 [Example 61, 1-Cyclopropyl-3-(2-fluoro-4-iodo-phenylamino)-1H-pyrrolo[3,2-c]pyridine-2-carboxylic acid (2-hydroxy-ethoxy)-amide] |
| > 5.00 | > 5.00 | O=C(NOCCO)c1c(Nc2ccc(I)cc2F)c2cnccc2n1CCCO [Example 41] |
| > 5.00 | > 5.00 | O=C(NOCCO)c1c(Nc2ccc(I)cc2F)c2cnccc2n1Cc1cccnc1 [Example 26] |
| – | > 5.00 | O=C(NOCCO)c1c(Nc2ccc(I)cc2F)c2cnccc2n1Cc1cccc(C(F)(F)F)c1 [Example 28] |
| > 5.00 | > 5.00 | O=C(NOCCO)c1c(Nc2ccc(I)cc2F)c2cnccc2n1Cc1ccncc1 [Example 25] |
| > 5.00 | > 5.00 | C[C@H](O)CONC(=O)c1c(Nc2ccc(I)cc2F)c2cncc(F)c2n1C [Example 54] |
| > 5.00 | > 5.00 | Cn1c(C(=O)NOCCO)c(Nc2ccc(I)cc2F)c2cncc(F)c21 [Example 37] |
| > 5.00 | > 5.00 | O=C(NOCCO)c1[nH]c2ccncc2c1Nc1ccc(I)cc1F [Example 10] |
| > 5.00 | > 5.00 | N#Cc1cccc(Cn2c(C(=O)NOCCO)c(Nc3ccc(I)cc3F)c3cnccc32)c1 [Example 48] |
| > 5.00 | > 5.00 | CN(C)C(=O)c1cccc(Cn2c(C(=O)NOCCO)c(Nc3ccc(I)cc3F)c3cnccc32)c1 [Example 45] |
| > 5.00 | > 5.00 | N#Cc1ccc(Cn2c(C(=O)NOCCO)c(Nc3ccc(I)cc3F)c3cnccc32)s1 [Example 46] |
| > 5.00 | > 5.00 | COc1ccc(Cn2c(C(=O)NOCCO)c(Nc3ccc(I)cc3F)c3cnccc32)cc1 [Example 8] |
| > 5.00 | – | CN(C)C(=O)c1ccc(Cn2c(C(=O)NOCCO)c(Nc3ccc(I)cc3F)c3cnccc32)cc1 [Example 42] |
| > 5.00 | > 5.00 | Cn1c(C(=O)NO)c(Nc2ccc(I)cc2F)c2cnccc21 [Example 13] |
| > 5.00 | > 5.00 | O=C(NOCCO)c1c(Nc2ccc(I)cc2F)c2cnccc2n1CC#CCO [Example 65, 3-(2-Fluoro-4-iodo-phenylamino)-1-(4-hydroxy-but-2-ynyl)-1-H-pyrrolo[3,2-c]pyridine-2-carboxylic acid (2-hydroxy-ethoxy)-amide] |
